The source of these data is PMC3292765 (Chemistry & biology, 2012).

Experiment [1] concerns the target T1, p67^phox (Homo sapiens, UniProt P19878).
T1 sequence (P19878 1-212): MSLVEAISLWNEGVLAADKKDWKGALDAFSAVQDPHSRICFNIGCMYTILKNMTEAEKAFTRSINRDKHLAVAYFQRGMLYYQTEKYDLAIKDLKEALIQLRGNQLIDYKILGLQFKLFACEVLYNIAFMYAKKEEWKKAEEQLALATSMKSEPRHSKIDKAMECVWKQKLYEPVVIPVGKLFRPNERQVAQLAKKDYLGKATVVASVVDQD
Nature of the experiment: microscale thermophoresis with labeled recombinant protein. Format: binding. On the technique in general: In MST a laser heats a spot of the sample, and binding alters the fluorescence response.

Experiment [2] deals with T1, p67^phox. The description is as above. It counts as binding. This is another data set of the same source.

pKd: −log10 of the molar value. Where two headings read alike, the source gives them in different places.

For orientation: pKd means −log10 of the Kd, conventionally taken in molar units. For the compound `O=[N+]([O-])c1cccc(C2Nc3ccc([N+](=O)[O-])cc3C3C=CCC32)c1` (centres unmarked) [compound 16, Phox-I2], the negative-log Kd (pKd) on p67^phox [1] is about 6.82.

Turning to Phox-I1, the negative-log Kd (pKd) on p67^phox [2] was about 7.00.
